Experimental data reported in patent US8846909B2, “Bicyclic heteroaryl kinase inhibitors and methods of use” (University of Rochester, priority 2010, dated 2014).

Target: T1, MLK3 (Homo sapiens, UniProt Q16584)
T1 construct: purchased Dundee DU8313
Assay: Radiometric filter plate MLK3 assay; note: 2 µM cold ATP (Km)
Format: biochemical
Conditions: read-out: MK3 IC50
Description: After a twenty minute incubation, the reactions were washed through filter plates and read on a scintillation counter. Results are shown in Table 10 below, in which +++ indicates ≦0.1 μM, ++ indicates >0.1 μM and ≦1 μM, and + indicates >1 μM.

T1 sequence (Q16584 whole entry): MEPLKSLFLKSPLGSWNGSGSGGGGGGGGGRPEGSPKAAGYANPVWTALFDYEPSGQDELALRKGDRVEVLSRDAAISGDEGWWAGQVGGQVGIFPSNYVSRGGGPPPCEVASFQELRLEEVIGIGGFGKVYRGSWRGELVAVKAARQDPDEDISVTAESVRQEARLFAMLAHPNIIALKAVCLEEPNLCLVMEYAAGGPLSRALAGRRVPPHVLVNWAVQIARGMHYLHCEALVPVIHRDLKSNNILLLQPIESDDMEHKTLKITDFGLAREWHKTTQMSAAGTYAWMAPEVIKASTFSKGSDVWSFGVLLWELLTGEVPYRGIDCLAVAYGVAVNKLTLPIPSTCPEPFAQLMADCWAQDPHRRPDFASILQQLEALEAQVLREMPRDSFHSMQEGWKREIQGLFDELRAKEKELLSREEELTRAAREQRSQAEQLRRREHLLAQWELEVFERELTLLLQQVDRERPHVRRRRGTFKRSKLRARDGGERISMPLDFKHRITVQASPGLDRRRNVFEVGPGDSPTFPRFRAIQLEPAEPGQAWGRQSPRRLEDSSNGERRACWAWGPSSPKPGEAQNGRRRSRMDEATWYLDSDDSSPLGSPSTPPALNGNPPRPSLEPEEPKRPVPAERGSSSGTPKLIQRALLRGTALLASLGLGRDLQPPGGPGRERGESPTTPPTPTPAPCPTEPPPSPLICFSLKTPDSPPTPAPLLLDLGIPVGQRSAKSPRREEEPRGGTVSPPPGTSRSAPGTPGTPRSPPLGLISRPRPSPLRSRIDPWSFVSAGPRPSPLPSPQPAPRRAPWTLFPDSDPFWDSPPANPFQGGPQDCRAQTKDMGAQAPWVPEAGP

Row | Compound | IC50 [nM]
1 | COc1cc(-c2cnc3c(c2)C(=Cc2cccc(C#N)c2)C(=O)N3)cc(OC)c1OC (mixture of isomers) [Example 134, 3-[2-oxo-5-(3,4,5-trimethoxy-phenyl)-1,2-dihydro-pyrrolo[2,3-b]pyridin-3-ylidenemethyl]-benzonitrile] | > 1000
2 | COc1cc(-c2cnc3c(c2)C(=Cc2ccncc2)C(=O)N3)cc(OC)c1OC (single isomer, unassigned) [Example 129, (E)- and (Z)-3-pyridin-4-ylmethylene-5-(3,4,5-trimethoxy-phenyl)-1,3-dihydro-pyrrolo[2,3-b]pyridin-2-one] | > 1000
3 | CC(=O)Nc1ccc(-c2cnc3[nH]cc(-c4ccc5[nH]ccc5c4)c3c2)cc1 [Example 3, N-(4-(3-(1H-indol-5-yl)-1H-pyrrolo[2,3-b]pyridin-5-yl)phenyl)acetamide] | < 100
4 | COc1cc(-c2cnc3[nH]cc(-c4ccc5[nH]ccc5c4)c3c2)ccc1N [Example 5, 4-(3-(1H-indol-5-yl)-1H-pyrrolo[2,3-b]pyridin-5-yl)-2-methoxyaniline] | < 100
5 | CN1CCN(c2cc(-c3cnc4[nH]cc(-c5ccc6[nH]ccc6c5)c4c3)ccn2)CC1 [Example 7, 3-(1H-indol-5-yl)-5-(2-(4-methylpiperazin-1-yl)pyridin-4-yl)-1H-pyrrolo[2,3-b]pyridine] | < 100
6 | Nc1ccc(-c2cnc3[nH]cc(-c4ccc5[nH]ccc5c4)c3c2)cc1 [Example 8, 4-(3-(1H-indol-5-yl)-1H-pyrrolo[2,3-b]pyridin-5-yl)aniline] | < 100
7 | CS(=O)(=O)Nc1ccc(-c2cnc3[nH]cc(-c4ccc5[nH]ccc5c4)c3c2)cc1 [Example 11, N-(4-(3-(1H-indol-5-yl)-1H-pyrrolo[2,3-b]pyridin-5-yl)phenyl)methanesulfonamide] | < 100
8 | COc1cc(-c2cnc3[nH]cc(-c4ccc(N)cc4)c3c2)cc(OC)c1OC [Example 15, 4-(5-(3,4,5-trimethoxyphenyl)-1H-pyrrolo[2,3-b]pyridin-3-yl)aniline] | < 100
9 | COc1cc(-c2cnc3[nH]cc(-c4ccc(NC(C)=O)cc4)c3c2)cc(OC)c1OC [Example 16, N-(4-(5-(3,4,5-trimethoxyphenyl)-1H-pyrrolo[2,3-b]pyridin-3-yl)phenyl)acetamide] | < 100
10 | COc1cc(-c2cnc3[nH]cc(-c4ccc(N(C)C)nc4)c3c2)cc(OC)c1OC [Example 19, N,N-dimethyl-5-(5-(3,4,5-trimethoxyphenyl)-1H-pyrrolo[2,3-b]pyridin-3-yl)pyridin-2-amine] | < 100
11 | Nc1ncc(-c2cnc3[nH]cc(-c4cnc(N)nc4)c3c2)cn1 [Example 20, 5,5′-(1H-pyrrolo[2,3-b]pyridine-3,5-diyl)dipyrimidin-2-amine] | > 1000
12 | CN(C)c1ccc(-c2cnc3[nH]cc(-c4ccc(F)c(Cl)c4)c3c2)cn1 [Example 22, 5-(3-(3-chloro-4-fluorophenyl)-1H-pyrrolo[2,3-b]pyridin-5-yl)-N,N-dimethylpyridin-2-amine] | > 1000
13 | COc1cc(-c2cnc3[nH]cc(-c4ccc5c(ccn5C)c4)c3c2)cc(OC)c1OC [Example 24, 3-(1-methyl-1H-indol-5-yl)-5-(3,4,5-trimethoxyphenyl)-1H-pyrrolo[2,3-b]pyridine] | < 100
14 | COc1cc(-c2cnc3[nH]cc(-c4ccc(C(N)=O)cc4)c3c2)cc(OC)c1OC [Example 25, 4-(5-(3,4,5-trimethoxyphenyl)-1H-pyrrolo[2,3-b]pyridin-3-yl)benzamide] | < 100
15 | COc1ccc(-c2cnc3[nH]cc(-c4ccc(C(N)=O)cc4)c3c2)cc1OC [Example 26, 4-(5-(3,4-dimethoxyphenyl)-1H-pyrrolo[2,3-b]pyridin-3-yl)benzamide] | < 100
16 | Nc1ccc(-c2cnc3[nH]cc(-c4ccc(F)c(Cl)c4)c3c2)cn1 [Example 29, 5-(3-(3-chloro-4-fluorophenyl)-1H-pyrrolo[2,3-b]pyridin-5-yl)pyridin-2-amine] | > 1000
17 | c1cc2cc(-c3c[nH]c4ncc(-c5ccc(NCCN6CCCC6)nc5)cc34)ccc2[nH]1 [Example 31, 5-(3-(1H-indol-5-yl)-1H-pyrrolo[2,3-b]pyridin-5-yl)-N-(2-(pyrrolidin-1-yl)ethyl)pyridin-2-amine] | 100 to 1000
18 | CN(C)Cc1ccc(-c2cnc3[nH]cc(-c4ccc5[nH]ccc5c4)c3c2)cc1 [Example 33, 1-(4-(3-(1H-indol-5-yl)-1H-pyrrolo[2,3-b]pyridin-5-yl)phenyl)-N,N-dimethylmethanamine] | < 100
19 | COc1cc(-c2cnc3[nH]cc(-c4ccc5[nH]ccc5c4)c3c2)ccc1OCCN(C)C [Example 35, 2-(4-(3-(1H-indol-5-yl)-1H-pyrrolo[2,3-b]pyridin-5-yl)-2-methoxyphenoxy)-N,N-dimethylethanamine] | > 1000
20 | COc1ccc(-c2cnc3[nH]cc(-c4ccc5[nH]ccc5c4)c3n2)cc1OC [Example 37, 2-(3,4-dimethoxyphenyl)-7-(1H-indol-5-yl)-5H-pyrrolo[3,2-b]pyrazine] | < 100

Row | Compound | IC50 [nM]
21 | COc1cc(-c2cnc3[nH]cc(-c4ccc5[nH]ccc5c4)c3n2)ccc1N [Example 38, 4-(7-(1H-indol-5-yl)-5H-pyrrolo[3,2-b]pyrazin-2-yl)-2-methoxyaniline] | < 100
22 | COc1cc(-c2cnc3[nH]cc(-c4ccc5[nH]ccc5c4)c3n2)ccc1OCCN1CCOCC1 [Example 39, 4-(2-(4-(7-(1H-indol-5-yl)-5H-pyrrolo[3,2-b]pyrazin-2-yl)-2-methoxyphenoxy)ethyl)morpholine] | < 100
23 | COc1cc(-c2cnc3[nH]c(=O)n(-c4ccc5[nH]ccc5c4)c3n2)cc(OC)c1OC [Example 40, 1-(1H-indol-5-yl)-6-(3,4,5-trimethoxyphenyl)-1H-imidazo[4,5-b]pyrazin-2(3H)-one] | < 100
24 | Cn1ccc2cc(-n3c(=O)[nH]c4ncc(-c5ccc(O)cc5)nc43)ccc21 [Example 42, 6-(4-hydroxyphenyl)-1-(1-methyl-1H-indol-5-yl)-1H-imidazo[4,5-b]pyrazin-2(3H)-one] | > 1000
25 | Cc1cc(C)cc(-c2cnc3[nH]c(=O)n(-c4ccc5c(ccn5C)c4)c3n2)c1 [Example 43, 6-(3,5-dimethylphenyl)-1-(1-methyl-1H-indol-5-yl)-1H-imidazo[4,5-b]pyrazin-2(3H)-one] | > 1000
26 | O=c1[nH]c2ncc(-c3ccncc3)nc2n1-c1ccc2[nH]ccc2c1 [Example 44, 1-(1H-indol-5-yl)-6-(pyridin-4-yl)-1H-imidazo[4,5-b]pyrazin-2(3H)-one] | > 1000
27 | Cc1cc(C)cc(-c2cnc3[nH]c(=O)n(-c4ccc5[nH]ccc5c4)c3n2)c1 [Example 46, 6-(3,5-dimethylphenyl)-1-(1H-indol-5-yl)-1H-imidazo[4,5-b]pyrazin-2(3H)-one] | > 1000
28 | O=c1[nH]c2ncc(-c3cc(Cl)cc(Cl)c3)nc2n1-c1ccc2[nH]ccc2c1 [Example 48, 6-(3,5-dichlorophenyl)-1-(1H-indol-5-yl)-1H-imidazo[4,5-b]pyrazin-2(3H)-one] | > 1000
29 | COc1ccc(-c2cnc3[nH]c(=O)n(-c4ccc5[nH]ccc5c4)c3n2)cc1F [Example 49, 6-(3-fluoro-4-methoxyphenyl)-1-(1H-indol-5-yl)-1H-imidazo[4,5-b]pyrazin-2(3H)-one] | > 1000
30 | COc1cc(-c2cnc3[nH]c(=O)n(-c4ccc5[nH]ccc5c4)c3n2)ccc1O [Example 55, 6-(4-hydroxy-3-methoxyphenyl)-1-(1H-indol-5-yl)-1H-imidazo[4,5-b]pyrazin-2(3H)-one] | < 100
31 | O=c1[nH]c2ncc(-c3ccc4cc[nH]c4c3)nc2n1-c1ccc2[nH]ccc2c1 [Example 56, 1-(1H-indol-5-yl)-6-(1H-indol-6-yl)-1H-imidazo[4,5-b]pyrazin-2(3H)-one] | > 1000
32 | COc1cc(-c2cnc3[nH]c(=O)n(-c4ccc5[nH]ccc5c4)c3n2)ccc1OCCN1CCOCC1 [Example 57, 1-(1H-indol-5-yl)-6-(3-methoxy-4-(2-morpholinoethoxy)phenyl)-1H-imidazo[4,5-b]pyrazin-2(3H)-one] | < 100
33 | O=c1[nH]c2ncc(-c3cc(F)c(O)c(F)c3)nc2n1-c1ccc2[nH]ccc2c1 [Example 59, 6-(3,5-difluoro-4-hydroxyphenyl)-1-(1H-indol-5-yl)-1H-imidazo[4,5-b]pyrazin-2(3H)-one] | < 100
34 | COc1cc(-c2cnc3[nH]c(=O)n(-c4ccc5[nH]ccc5c4)c3n2)ccc1N [Example 60, 6-(4-amino-3-methoxyphenyl)-1-(1H-indol-5-yl)-1H-imidazo[4,5-b]pyrazin-2(3H)-one] | < 100
35 | O=c1[nH]c2ncc(-c3cc(F)cc(F)c3)nc2n1-c1ccc2[nH]ccc2c1 [Example 61, 6-(3,5-difluorophenyl)-1-(1H-indol-5-yl)-1H-imidazo[4,5-b]pyrazin-2(3H)-one] | > 1000
36 | COc1cc(-c2cnc3[nH]c(=O)n(-c4ccc5[nH]ccc5c4)c3n2)cc(OC)c1O [Example 62, 6-(4-hydroxy-3,5-dimethoxyphenyl)-1-(1H-indol-5-yl)-1H-imidazo[4,5-b]pyrazin-2(3H)-one] | < 100
37 | COc1cc(OC)cc(-c2cnc3[nH]c(=O)n(-c4ccc5[nH]ccc5c4)c3n2)c1 [Example 65, 6-(3,5-dimethoxyphenyl)-1-(1H-indol-5-yl)-1H-imidazo[4,5-b]pyrazin-2(3H)-one] | > 1000
38 | CN1CCN(c2cc(-c3cnc4[nH]c(=O)n(-c5ccc6[nH]ccc6c5)c4n3)ccn2)CC1 [Example 66, 1-(1H-indol-5-yl)-6-(2-(4-methylpiperazin-1-yl)pyridin-4-yl)-1H-imidazo[4,5-b]pyrazin-2(3H)-one] | > 1000
39 | COc1ccc(-n2c(=O)[nH]c3ncc(-c4ccc(OC)c(OC)c4)nc32)cc1 [Example 69, 6-(3,4-dimethoxyphenyl)-1-(4-methoxyphenyl)-1H-imidazo[4,5-b]pyrazin-2(3H)-one] | > 1000
40 | COc1ccc(-n2c(=O)[nH]c3ncc(-c4ccc(O)cc4)nc32)cc1 [Example 70, 6-(4-hydroxyphenyl)-1-(4-methoxyphenyl)-1H-imidazo[4,5-b]pyrazin-2(3H)-one] | > 1000
